Measured values published in US10174047B2, “Thienodiazepine derivatives or pharmaceutically acceptable salts thereof, and pharmaceutical composition including the same as an active ingredient” (Industry-University Cooperation Foundation Hanyang …, priority 2015, dated 2019).

test system: A375P cell line (melanoma); assay: Proliferation inhibition activity against A375P cell line (MTT assay); format: cell-based; conditions: A375P melanoma cells, MTT assay; read-out: A375P (GI50)
Procedure: Measurement of Proliferation Inhibition Activity Against A375P Cell Line (Melanoma)
An A375P cell line purchased from ATCC was cultured in a DMEM medium [containing 10% FBS, 1% penicillin/streptomycin] at 37° C. in the presence of 5% CO2. The cultured A375P cell line was taken using 0.05% trypsin-0.02% EDTA, and seeded into a 96-well plate at a density of 5×10^3 cells per well.
Cell viability was measured using an MTT [3-(4,5-dimethylthiazol-2-yl)-2,5-diphenyltetrazolium bromide] assay (CellTiter 96 Assay, Promega) as follows. 15 μl of dye was placed per well, the cells were cultured for 2 hours, and then treated with 100 μl of a stop solution, and after 24 hours, absorbance was measured. One day after plating, they were treated with compounds. For treatment with compounds, […] of stock was prepared, and serially diluted to one-third in dimethyl sulfoxide (DMSO) to prepare a 12-point test compound plate, and 0.5 μl was added (final concentration DMSO 0.5%).
In the following Tables 1 to 3, in a case of GI50 being 10 to 30 μM, it was indicated as (+), in a case of it being 1 to 10 μM, it was indicated as (++), and in case of being less than 1 μM, it was indicated as (+++).

GI50 | SMILES
10 to 30 µM | Cc1cc(C)cc(C(=O)Nc2cccc(C3=Nc4cscc4NC(=O)C3)c2)c1 [Example 34, 3,5-dimethyl-N-(3-(2-oxo-2,3-dihydro-1H-thieno[3,4-b][1,4]diazepine-4-yl)phenyl)benzamide]
< 1 µM | O=C1CC(c2cccc(NC(=O)Nc3cccc(Cl)c3)c2)=Nc2cscc2N1 [Example 48, 1-(3-chlorophenyl)-3-(3-(2-oxo-2,3-dihydro-1H-thieno[3,4-b][1,4]diazepine-4-yl)phenyl)urea]
10 to 30 µM | N#Cc1ccccc1Sc1ccccc1C(=O)Nc1cccc(C2=Nc3cscc3NC(=O)C2)c1 [Example 32, 2-(2-cyanophenylthio)-N-(3-(2-oxo-2,3-dihydro-1H-thieno[3,4-b][1,4]diazepine-4-yl)phenyl)benzamide]
10 to 30 µM | Cc1cn(-c2cc(C(=O)Nc3cccc(C4=Nc5cscc5NC(=O)C4)c3)cc(C(F)(F)F)c2)cn1 [Example 19, 3-(4-methyl-1H-imidazol-1-yl)-N-(3-(2-oxo-2,3-dihydro-1H-thieno[3,4-b][1,4]diazepine-4-yl)phenyl)-5-(trifluoromethyl)benzamide]
< 1 µM | CCN1CCN(Cc2ccc(NC(=O)Nc3cccc(C4=Nc5cscc5NC(=O)C4)c3)cc2C(F)(F)F)CC1 [Example 49, 1-(4-((4-ethylpiperazine-1-yl)methyl)-3-(trifluoromethyl)phenyl)-3-(3-(2-oxo-2,3-dihydro-1H-thieno[3,4-b][1,4]diazepine-4-yl)phenyl)urea]
1 to 10 µM | O=C1CC(c2cccc(NC(=O)Nc3ccc(Cl)cc3)c2)=Nc2cscc2N1 [Example 47, 1-(4-chlorophenyl)-3-(3-(2-oxo-2,3-dihydro-1H-thieno[3,4-b][1,4]diazepine-4-yl)phenyl)urea]
10 to 30 µM | O=C1CC(c2cccc(NC(=O)c3ccccc3-c3ccccc3)c2)=Nc2cscc2N1 [Example 23, N-(3-(2-oxo-2,3-dihydro-1H-thieno[3,4-b][1,4]diazepine-4-yl)phenyl)biphenyl-2-carboxamide]

The next lines start with the molecule.

SMILES | GI50
O=C1CC(c2ccc(NC(=O)c3ccc(N4CCOCC4)c(C(F)(F)F)c3)cc2)=Nc2cscc2N1 [Example 4, 4-morpholino-N-(4-(2-oxo-2,3-dihydro-1H-thieno[3,4-b][1,4]diazepine-4-yl)phenyl)-3-(trifluoromethyl)benzamide] | 1 to 10 µM
O=C(Cc1c[nH]c2ccccc12)Nc1ccc(C2=Nc3cscc3NC(=O)C2)cc1 [Example 14, 2-(1H-indol-3-yl)-N-(4-(2-oxo-2,3-dihydro-1H-thieno[3,4-b][1,4]diazepine-4-yl)phenyl)acetamide] | 10 to 30 µM
O=C(Cc1ccc(-c2ccccc2)cc1)Nc1ccc(C2=Nc3cscc3NC(=O)C2)cc1 [Example 16, 2-(biphenyl-4-yl)-N-(4-(2-oxo-2,3-dihydro-1H-thieno[3,4-b][1,4]diazebine-4-yl)phenyl)acetamide] | 10 to 30 µM
O=C1CC(c2ccc(NC(=O)c3ccncc3)cc2)=Nc2cscc2N1 [Example 10, N-(4-(2-oxo-2,3-dihydro-1H-thieno[3,4-b][1,4]diazepine-4-yl)phenyl)isonicotinamide] | 10 to 30 µM
O=C1CC(c2ccc(NC(=O)c3ccc(Cl)c(C(F)(F)F)c3)cc2)=Nc2cscc2N1 [Example 1, 4-chloro-N-(4-(2-oxo-2,3-dihydro-1H-thieno[3,4-b][1,4]diazepine-4-yl)phenyl)-3-(trifluoromethyl)benzamide] | 1 to 10 µM

same assay, conditions: A375P melanoma cells, statement in words

SMILES | effects against A375P
O=C1CC(c2cccc(NC(=O)Nc3cccc(Cl)c3)c2)=Nc2cscc2N1 [Example 48, 1-(3-chlorophenyl)-3-(3-(2-oxo-2,3-dihydro-1H-thieno[3,4-b][1,4]diazepine-4-yl)phenyl)urea] | significant effects
CCN1CCN(Cc2ccc(NC(=O)Nc3cccc(C4=Nc5cscc5NC(=O)C4)c3)cc2C(F)(F)F)CC1 [Example 49, 1-(4-((4-ethylpiperazine-1-yl)methyl)-3-(trifluoromethyl)phenyl)-3-(3-(2-oxo-2,3-dihydro-1H-thieno[3,4-b][1,4]diazepine-4-yl)phenyl)urea] | significant effects
